The values that follow come from publication PMC8360279, “Combination of Polygoni Multiflori Radix Praeparata and Acori Tatarinowii Rhizoma Alleviates Learning and Memory Impairment in Scopolamine-Treated Mice by Regulating Synaptic-Related Proteins” (Frontiers in Pharmacology, 2021).

Counter-ions that a name gives are not always drawn.

One data set is described as follows: in vivo. The following applies: male, Sprague-Dawley, rat, po; for Tmax: rat plasma, mean ± S.D., n = 6.
For data set [1] the following is noted: male, Sprague-Dawley, rat, in vivo, po, 4.32 g/kg.
Procedure: (§1) Additionally, 18 rats were orally administered PA, PMRP, or ATR once, respectively (6 rats in each group). The doses were 4.32 g/kg for PA, 2.16 g/kg for PMRP or ATR. The whole blood samples were collected at different time points.
(§2) The components of PA were analyzed by HPLC-MS. The samples were separated on a ZORBAX StableBond C18 reversed-phase column (2.1 × 50 mm, 1.8 μm) (Agilent Technologies Co., CA, United States). The autosampler was set at 20 C, and gradient elution was performed with 0.1% formic acid as solvent A and acetonitrile as solvent B. The gradient program was as follows: 0–10 min, 88%–40% A; 10–12 min, 40%–1% A; and 12–15 min, 1% A. The flow rate was set at 0.3 ml min^−1, and the injection volume was 4 μL. The total run time was 15 min for each sample.
(§3) GC-MS analysis was conducted on a 7890A series gas chromatograph coupled to a Model 7,693 autosampler and Model 5975C Inert XL EI MSD with Triple-Axis Detector (Thermo Fisher Scientific). The carrier gas was 99.99% high-purity helium at a flow rate of 1.2 ml/min. Samples were separated on a TG-5MS column (60 × 0.25 mm and 0.25 μm film thickness). The sample volume was 1 μL with a split ratio of 5:1. The oven temperature program was initially set at 100°C for 1 min, then ramped at 10°C/min to 180°C and held for 1 min; ramped at 5°C/min to 210°C and held for 1 min; and ramped at 10°C/min to 260°C and held for 5 min. The total run time was 27 min. The injection port and detector temperatures were 280°C and 300°C, respectively. Electrospray ionization was performed at 70 eV. Selective ion monitoring was set for quantitation with a dwell time of 100 m/ion.
(§4) Male rats (n = 18) were fasted but had free access to water for 12 h prior to administration of PA, PMRP, and ATR (6 rats in each group). Blood samples were collected from the posterior orbital venous plexus of rats before dosing (time 0) and 5, 10, and 30 min and 1, 2, 4, 8, 16, and 24 h after dosing. The samples were immediately centrifuged at 4,500 rpm for 10 min and the separated plasma samples were stored at −80°C until analysis.
The nature of data set [2]: Pharmacokinetics in rat plasma after oral administration of PA, PMRP or ATR (HPLC-MS and GC-MS). The note with it: for Tmax: rat plasma, mean ± S.D., n = 6; for Plasma concentration after oral PA compared to the level after PMRP or ATR: rats, PA 4.32 g/kg vs PMRP or ATR 2.16 g/kg.
Procedure: as §1, §2, §3, §4
Another data set concerns ERK1/2/Nrf2/HO-1 pathway. Also on record: method as in Lai et al. (2020). The note with it: by modulating the ERK1/2/Nrf2/HO-1 pathway; ref Lai et al. (2020); cited from earlier work.
Data set [3] deals with BDNF, TrkB, ERK, p-ERK, CREB, and p-CREB proteins in the hippocampus. The data set is described as follows: Western blot of BDNF/TrkB/ERK/CREB signaling axis components in the hippocampus. The note with it: scopolamine treatment vs control mice. On the technique in general: In western blotting, separated proteins are transferred to a membrane and probed.
Procedure: The mice were randomly divided into the following eight groups (n = 12 per group): 1) control (normal feeding); 2) model [scopolamine, 4 mg kg^−1⋅day^−1 by intraperitoneal injection (i.p.)]; 3) PAL [scopolamine, 4 mg kg^−1⋅day^−1 i. p. + PA, 1.56 g kg^−1⋅day^−1 by intragastric administration (i.g.)]; 4) PAH (scopolamine, 4 mg kg^−1⋅day^−1 i. p. + PA, 6.24 g kg^−1⋅day^−1 i. g.); 5) PL (scopolamine, 4 mg kg^−1⋅day^−1 i. p. + PMRP, 0.78 g kg^−1⋅day^−1 i. g.); 6) PH (scopolamine, 4 mg kg^−1⋅day^−1 i. p. + PMRP 3.12 g kg^−1⋅day^−1 i. g.); 7) AL (scopolamine, 4 mg kg^−1⋅day^−1 i. p.+ ATR, 0.78 g kg^−1⋅day^−1 i. g.); and 8) AH (scopolamine, 4 mg kg^−1⋅day^−1 i. p. + ATR, 3.12 g kg^−1⋅day^−1 i. g.). […]
Three mice per group were deeply anesthetized with chloral hydrate (320 mg/kg i. p.) 60 min after the behavioral test and perfused through the ascending aorta with PBS. […] The hippocampus tissue was lysed in radioimmunoprecipitation assay buffer containing protease and phosphatase inhibitors; the protein concentration of the lysate was determined with the Bradford assay. […] After three washes with washing buffer and incubation with secondary antibody (1:3,000) for 2 h, protein bands were detected with SuperSignal West Pico Chemiluminescent Substrate (Solarbio, Beijing, China) and the signal intensity of target protein bands was normalized to that of the loading control (actin).
Data set [4] has as its system neurotransmitter levels in the cerebral cortex of scopolamine-treated mice. The data set is described as follows: HPLC-MS analysis of neurotransmitter content in mouse cortical tissue. The following applies: scopolamine injection 4 mg/kg i.p. vs control mice. It counts as in vivo, Kunming mice.
Another data set relates to scopolamine-treated mice. The data set is described as follows: Morris water maze test in scopolamine-treated mice. The note with it: scopolamine 4 mg/kg i.p. (dementia model); starting from day 3; p < 0.001.
For data set [5], the system named is P90RSK and PSD95 in the hippocampus. The data set is described as follows: Immunohistochemistry of P90RSK and PSD95 in the hippocampus. The following applies: scopolamine vs control mice. Format: in vivo, Kunming mice. The procedure: The brain was removed and immediately fixed in 4% paraformaldehyde in PBS. […] After quenching endogenous peroxidase and blocking with normal goat serum, the sections were incubated overnight at 4°C with antibodies against P90RSK and PSD95 (both at 1:5,000). The sections were washed with PBS and incubated with secondary antibodies for 2 h at 37°C, and then stained with 3,3′-diaminobenzidine in chromogen solution; they were then counterstained with hematoxylin, dehydrated in ethanol, cleared in xylene, and mounted with Cytoseal (Thermo Fisher Scientific). P90RSK and PSD95 immunoreactivity was measured using Image Pro Plus v6.0 software (Media Cybernetics, Rockville, MD, United States). Brown staining on the cell membrane or in the cytoplasm was represented positive staining, with the staining intensity reflecting the expression levels of P90RSK and PSD95 proteins.

The conditions of data set [6]: Chen et al., cited from earlier work.
Setting [7] is: 2.16 g/kg, oral PMRP extract 2.16 g/kg once.
Setting [8] is: 4.32 g/kg, oral PA extract 4.32 g/kg once.
Setting [9] is: oral PMRP extract 2.16 g/kg once.
Where [10] appears, read: male, Sprague-Dawley, rat, plasma, po, 2.16 g/kg.
The mark [11] stands for this setting: male, Sprague-Dawley, rat, plasma, po, 2.16 g/kg, Tmax, oral ATR extract 2.16 g/kg once.
Setting [12] is: male, Sprague-Dawley, rat, plasma, po, 4.32 g/kg.
[13] abbreviates: male, Sprague-Dawley, rat, plasma, po, 4.32 g/kg, Tmax, oral PA extract 4.32 g/kg once.
The mark [14] stands for this setting: oral ATR extract 2.16 g/kg once.

Procedure for in vivo: as §1, §2, §3, §4

By AUC(0-inf) is commonly meant total exposure, with the tail of the curve extrapolated. A high value points to high exposure. The term AUC(0-t) denotes exposure summed from dosing to a finite time, without extrapolation to infinity. One may read the Cmax as the maximum level reached in the sampled fluid or tissue. By half-life is commonly meant how long it takes for the measured level to halve. A lower half-life goes with fast loss. Turning to `O=C(O)c1cc(O)c(O)c(O)c1` [gallic acid], the AUC(0-inf) was 2700 ng·h/mL in the data set “in vivo” (2.16 g/kg) and 1530 ng·h/mL in the data set “in vivo” (4.32 g/kg). The values for the AUC(0-t) in the data set “in vivo” (2.16 g/kg) and in “in vivo” (4.32 g/kg) were 2460 ng·h/mL and 831 ± 497 ng·h/mL, respectively. In addition, the Cmax in “in vivo” (2.16 g/kg) turned out to be 216 ± 47.9 ng/mL; in the data set “in vivo” (4.32 g/kg), 246 ± 244 ng/mL. This compound also gave a half-life in “in vivo” (2.16 g/kg) of 419 ± 129 min. Besides, the Tmax was found to be 41.4 min in “in vivo” (setting [7]), 26.4 min in the data set “in vivo” (setting [8]), 26.6 ± 45.8 min in data set [2] (oral PA extract 4.32 g/kg once) and 41.6 ± 21.4 min in data set [2] (setting [9]). The compound also yielded a T1/2 in [1] of 19.532 ± 13.369 h. Also, in data set [2], the “Plasma concentration after oral PA compared to the level after PMRP or ATR” value is listed as “similar”.

As to `C/C=C/c1ccc(OC)c(OC)c1` [cis-methyl isoeugenol], the AUC(0-inf) worked out at 123 ± 30 ng·h/mL in data set [2] (setting [10]) and 129 ± 45.5 ng·h/mL in data set [2] (setting [12]). In addition, the AUC(0-t) was determined as 93.8 ± 20.4 ng·h/mL in data set [2] (setting [10]) and 118 ± 45.2 ng·h/mL in data set [2] (setting [12]). Moreover, the Cmax in data set [2] (setting [10]) worked out at 19.4 ± 18.8 ng/mL; in [2] (setting [12]), 24.1 ± 4.99 ng/mL. Besides, the results for the half-life in [2] (setting [10]) and in data set [2] (setting [12]) were 450 ± 153 min and 486 ± 161 min, respectively. For the same compound, the Tmax in [2] (setting [11]) was determined as 211 min; in data set [2] (setting [13]) it was 94.8 min; in [2] (setting [14]) it was 210.8 ± 225.2 min; in [2] (oral PA extract 4.32 g/kg once) it was 94.98 ± 189.8 min. Moreover, the “Plasma concentration after oral PA compared to the level after PMRP or ATR” value in [2] is listed as “similar”.

Consider `Cc1cc(O)c2c(c1)C(=O)c1cc(O)cc(O)c1C2=O` [emodin], for which the AUC(0-inf) in the data set “in vivo” (2.16 g/kg) turned out to be 7400 ng·h/mL; in the data set “in vivo” (4.32 g/kg), 4160 ng·h/mL. Besides, the results for the AUC(0-t) in “in vivo” (2.16 g/kg) and in “in vivo” (4.32 g/kg) were 847 ± 802 ng·h/mL and 1810 ± 934 ng·h/mL, respectively. The Cmax in “in vivo” (2.16 g/kg) amounted to 370 ± 288 ng/mL; in the data set “in vivo” (4.32 g/kg) it was 363 ± 122 ng/mL. For the same compound, the values for the half-life in the data set “in vivo” (2.16 g/kg) and in the data set “in vivo” (4.32 g/kg) were 222 ± 410 min and 843 ± 709 min, respectively. The Tmax in “in vivo” (setting [7]) came out at 166 min; in “in vivo” (setting [8]), 28.2 min; in [2] (oral PA extract 4.32 g/kg once) it was 28.3 ± 44.9 min; in [2] (setting [9]), 165.8 ± 243.4 min. Further, in the data set on ERK1/2/Nrf2/HO-1 pathway, the “Effect on synaptic impairment” value is “protected against synaptic impairment”.

As for `CN1[C@@H]2C[C@@H](OC(=O)[C@H](CO)c3ccccc3)C[C@H]1[C@@H]1O[C@@H]12` [Scopolamine, Scopolamine Hydrobromide], in [3], the “Levels of BDNF, TrkB, ERK, p-ERK, CREB and p-CREB proteins in the hippocampus” value is “reduced”. Also, in data set [4], the “Concentrations of ACh, 5-HT, NE, Epi, Glu and GABA in the cortex” value was “reduced”. In the data set with scopolamine-treated mice, the “Time to find the platform vs controls” value was “significantly longer”. Besides, in [5], the “Immunoreactivity of P90RSK and PSD95 in the hippocampus” value is recorded as “reduced”.

On to `COc1cc(OC)c(OC)cc1C=O` [asarylaldehyde], for which the AUC(0-inf) in “in vivo” (2.16 g/kg) amounted to 1550 ng·h/mL; in “in vivo” (4.32 g/kg) it was 1970 ± 766 ng·h/mL. Moreover, the AUC(0-t) in the data set “in vivo” (2.16 g/kg) came out at 1440 ng·h/mL; in “in vivo” (4.32 g/kg), 1710 ± 503 ng·h/mL. Besides, the results for the Cmax in “in vivo” (2.16 g/kg) and in the data set “in vivo” (4.32 g/kg) were 119 ± 52.2 ng/mL and 200 ± 45 ng/mL, respectively. Moreover, the half-life was 431 ± 73.9 min in the data set “in vivo” (2.16 g/kg) and 442 ± 176 min in the data set “in vivo” (4.32 g/kg). The Tmax was determined as 133 min in the data set “in vivo” (2.16 g/kg, oral ATR extract 2.16 g/kg once); 25.8 min in the data set “in vivo” (setting [8]); 132.5 ± 193 min in data set [2] (setting [14]); 25.9 ± 26.5 min in data set [2] (oral PA extract 4.32 g/kg once). The “Plasma concentration after oral PA compared to the level after PMRP or ATR” value in data set [2] is “increased”.

Regarding `OCC1OC(Oc2c(O)cc(O)cc2C=Cc2ccc(O)cc2)C(O)C(O)C1O` [THSG, 2,3,5,4′-Tetrahydroxystilbene-2-O-β-D-glucoside], the Effect on memory entry in data set [6] (by modulating ERK1/2 and CREB activation and increasing BDNF and PSD95 levels, ref Hou et al., 2011, Wang et al., Zhou et al., 2012, Shen et al., 2015, 2016) was “enhanced memory”. The total exposure AUC(0-inf) was 102 ± 49.7 ng·h/mL in data set [2] (setting [10]) and 1630 ng·h/mL in data set [2] (setting [12]). Also, the AUC(0-t) was 102 ± 49.4 ng·h/mL in [2] (setting [10]) and 1520 ng·h/mL in data set [2] (setting [12]). Also, the values for the Cmax in [2] (setting [10]) and in [2] (setting [12]) were 147 ± 105 ng/mL and 708 ± 281 ng/mL, respectively. The half-life in data set [2] (setting [10]) was 10.2 ± 8.16 min; in data set [2] (setting [12]) it was 181 ± 201 min. The Tmax in data set [2] (male, Sprague-Dawley, rat, plasma, po, 2.16 g/kg, Tmax, oral PMRP extract 2.16 g/kg once) is 23.4 min; in data set [2] (setting [13]) it was 48.6 min; in [2] (oral PA extract 4.32 g/kg once, listed as 2,3,5,4′-Tetrahydroxystilbene-2-O-β-glucoside) it was 48.4 ± 41.7 min; in [2] (oral PMRP extract 2.16 g/kg once, listed as 2,3,5,4′-Tetrahydroxystilbene-2-O-β-glucoside) it was 23.3 ± 21.4 min. Besides, the “Plasma concentration after oral PA compared to the level after PMRP or ATR” value in [2] was “increased”.

Regarding `C/C=C\c1cc(OC)c(OC)cc1OC` [β-asarone], the figures for the AUC(0-inf) in [2] (setting [10]) and in data set [2] (setting [12]) were 1050 ng·h/mL and 744 ± 620 ng·h/mL, respectively. Also, the area under the curve AUC(0-t) is 603 ± 281 ng·h/mL in data set [2] (setting [10]) and 439 ± 209 ng·h/mL in [2] (setting [12]). In data set [2] (setting [10]), the Cmax worked out at 49.8 ± 16 ng/mL. For the same compound, the half-life was 640 ± 417 min in data set [2] (setting [10]) and 841 ± 891 min in data set [2] (setting [12]). Further, the Tmax is 287 min in data set [2] (setting [11]), 21 min in data set [2] (setting [13]), 286.7 ± 226.6 min in data set [2] (setting [14]) and 20.8 ± 21.1 min in data set [2] (oral PA extract 4.32 g/kg once). In [2], the “Plasma concentration after oral PA compared to the level after PMRP or ATR” value was “similar”.

Take `C/C=C/c1cc(OC)c(OC)cc1OC` [α-asarone]: the “Effect on learning and memory deficits” value in data set [6] (ref Limón et al., 2009, Shin et al., 2014, Li et al., 2019, 2020) was “improved learning and memory deficits”. Also, the AUC(0-inf) in data set [2] (setting [10]) was 1040 ng·h/mL; in data set [2] (setting [12]), 1240 ng·h/mL. For the same compound, the AUC(0-t) in data set [2] (setting [10]) was 600 ± 360 ng·h/mL; in data set [2] (setting [12]), 1020 ng·h/mL. Also, the Cmax in data set [2] (setting [10]) is 73.5 ± 25.9 ng/mL; in data set [2] (setting [12]) it was 101 ± 30.3 ng/mL. Besides, the half-life is 708 ± 754 min in data set [2] (setting [10]) and 496 ± 162 min in [2] (setting [12]). The Tmax in data set [2] (setting [11]) was determined as 212 min; in data set [2] (setting [13]), 52.8 min; in data set [2] (setting [14]) it was 212.5 ± 224.2 min; in [2] (oral PA extract 4.32 g/kg once), 52.5 ± 41.9 min. Also, the “Plasma concentration after oral PA compared to the level after PMRP or ATR” value in [2] is “increased”.
